Assay results reported in ChEMBL document CHEMBL1151596, “7-Oxa[2.2.1]bicycloheptane-2,3-dicarboxylic acid derivatives as phosphatase inhibitors” (Bioorg Med Chem Lett, 1997).

Columns and labels:
[1] = system: Jurkat; assay: Effect on the transcription and release of IL-2 in a reporter-gene assay (RGA); type: functional, cell-based; settings: Homo sapiens
[2] = Compound was tested for inhibition of protein phosphatase 2B (PP2B, Calcineurin)
[3] = Compound was tested for inhibition of protein phosphatase 2A (PP2A)
[4] = system: T-cell; assay: Compound was tested for inhibition of IL-2 secretion in mouse T cell line; type: functional, cell-based
[5] = Effect on the transcription and release of thymidine kinase in a reporter-gene assay (RGA); type: functional
[6] = Compound was tested for inhibition of […] ([…])

Structure (SMILES)	IC50 [1]	Ki [2]	Ki [3]	IC50 [4]	IC50 [5]	IC50 [3]	IC50 [6]
CN(C)C(=O)[C@H]1[C@@H](C(=O)O)[C@@H]2CC[C@H]1O2	4.7 µM	2.78 µM	0.18 µM	5 µM	100 µM		
COC(=O)[C@H]1[C@@H](C(=O)O)[C@@H]2CC[C@H]1O2 (single isomer, unassigned)		> 100 µM					
CCOC(=O)[C@@H]1[C@H](C(=O)OCC)[C@H]2CC[C@@H]1O2		> 100 µM					
O=C(O)[C@@H]1[C@H](C(=O)O)[C@H]2CC[C@@H]1O2	> 100 µM	3.02 µM	0.17 µM		42 µM		
C/C=C/C[C@@H](C)[C@@H](O)[C@H]1C(=O)N[C@@H](CC)C(=O)N(C)CC(=O)N(C)[C@@H](CC(C)C)C(=O)N[C@@H](C(C)C)C(=O)N(C)[C@@H](CC(C)C)C(=O)N[C@@H](C)C(=O)N[C@H](C)C(=O)N(C)[C@@H](CC(C)C)C(=O)N(C)[C@@H](CC(C)C)C(=O)N(C)[C@@H](C(C)C)C(=O)N1C [CYCLOSPORINE]	0.008 µM						
C[C@@]12C(=O)OC(=O)[C@]1(C)[C@H]1CC[C@@H]2O1 [CANTHARIDIN]		10.8 µM	0.065 µM				
O=C1OC(=O)[C@H]2[C@@H]1[C@@H]1CC[C@H]2O1 [DEMETHYL-CANTHARIDIN]	> 22 µM	3.33 µM	0.2 µM		100 µM	0.97 µM	5 µM
